Values quoted from earlier work, collected in patent publication US7910678B2, “Copolymers having 1-methyl-2-methoxyethyl moieties” (Abbott Laboratories, priority 2006, dated 2011).
Like-named read-outs stand apart in the source and are kept apart here.

Tested on: mouse

SMILES | Oral-mouse LD50 (oral) [mg/kg] | Oral-mouse LD50 (in vivo, po) [mg/kg]
COCC(C)O (stereo not shown) [1-methoxy-2-propanol] | 11700 | 
COCCO [2-methoxyethanol] | 2560 | 
CCOCCO [2-ethoxyethanol] | 2451 | 
CCO [ethanol] |  | 3450
